Laboratory results: patent publication US10766884B2 (Pfizer Inc., priority 2018, dated 2020)

Assays:
[1] = biological target: CDK6/Cyclin D3 (Homo sapiens (Human), UniProt Q00534); assay: CDK6/Cyclin D3 mobility shift assay; format: biochemical; settings: activated CDK6/Cyclin D3, 3.5 mM ATP, Morrison fit; read-out: CDK6_D3 Ki
Procedure: (§1) The purpose of the CDK6/Cyclin D3 assay is to evaluate the inhibition (% inhibition, Kiapp and Ki values) in the presence of small molecule inhibitors by using a fluorescence based microfluidic mobility shift assay. […] The mobility shift assay electrophoretically separates the fluorescently labeled peptides (substrate and phosphorylated product) following the kinase reaction. Both substrate and product are measured and the ratio of these values is used to generate % conversion of substrate to product by the LabChip EZ Reader.
The reaction was stopped after 95 minutes by the addition of 50 μL of 30 mM EDTA. Ki determinations were made from a plot of the fractional velocity as a function of inhibitor concentration fit to the Morrison equation with the enzyme concentration as a variable.
(§2) For CDK4 and CDK6 mobility shift assays, see also Morrison, J. F. (1969) Kinetics of the reversible inhibition of enzyme-catalysed reactions by tight-binding inhibitors, Biochimica et biophysica acta 185, 269-286; and Murphy, D. J. (2004) Determination of accurate KI values for tight-binding enzyme inhibitors: an in silico study of experimental error and assay design, Analytical biochemistry 327, 61-67.

[2] = biological target: CDK4/Cyclin D1 (Homo sapiens (Human), UniProt P11802); assay: CDK4/Cyclin D1 mobility shift assay; format: biochemical; settings: activated CDK4/Cyclin D1, 3.5 mM ATP, Morrison fit; read-out: CDK4D1 Ki
Procedure: as §1, with “CDK4/Cyclin D1” for “of the CDK6/Cyclin D3”, “Conversion” for “conversion”
The reaction was stopped after 195 minutes by the addition of 50 μL of 30 mM EDTA. Ki determinations were made from a plot of the fractional velocity as a function of inhibitor concentration fit to the Morrison equation with the enzyme concentration as a variable.
as §2

Chain of CDK6/Cyclin D3 (Q00534 whole entry): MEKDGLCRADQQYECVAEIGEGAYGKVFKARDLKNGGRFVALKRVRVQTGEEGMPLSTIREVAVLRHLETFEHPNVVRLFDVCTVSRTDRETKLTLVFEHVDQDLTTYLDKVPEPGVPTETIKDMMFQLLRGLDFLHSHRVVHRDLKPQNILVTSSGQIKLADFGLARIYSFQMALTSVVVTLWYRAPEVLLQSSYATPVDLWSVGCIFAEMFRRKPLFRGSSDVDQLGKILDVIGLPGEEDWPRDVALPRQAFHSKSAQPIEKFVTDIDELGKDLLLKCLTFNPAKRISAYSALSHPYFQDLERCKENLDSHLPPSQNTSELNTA
Chain of CDK6/Cyclin D3 (P30281 whole entry partner): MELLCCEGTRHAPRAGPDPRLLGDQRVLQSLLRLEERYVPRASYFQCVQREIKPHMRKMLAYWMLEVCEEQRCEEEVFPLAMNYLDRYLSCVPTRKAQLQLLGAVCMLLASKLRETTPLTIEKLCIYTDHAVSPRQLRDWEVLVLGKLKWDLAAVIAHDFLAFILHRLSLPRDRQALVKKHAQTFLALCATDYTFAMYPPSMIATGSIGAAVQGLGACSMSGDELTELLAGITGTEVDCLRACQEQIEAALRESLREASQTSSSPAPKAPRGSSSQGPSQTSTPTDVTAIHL
Chain of CDK4/Cyclin D1 (P11802 whole entry): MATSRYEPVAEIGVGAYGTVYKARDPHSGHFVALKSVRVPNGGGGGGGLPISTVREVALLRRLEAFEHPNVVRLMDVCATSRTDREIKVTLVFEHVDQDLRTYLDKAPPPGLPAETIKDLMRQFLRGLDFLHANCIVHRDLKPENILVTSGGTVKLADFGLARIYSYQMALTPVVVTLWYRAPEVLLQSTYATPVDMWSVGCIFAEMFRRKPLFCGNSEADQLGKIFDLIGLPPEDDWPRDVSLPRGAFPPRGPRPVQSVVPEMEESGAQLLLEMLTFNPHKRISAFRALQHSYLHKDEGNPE
Chain of CDK4/Cyclin D1 (P24385 whole entry partner): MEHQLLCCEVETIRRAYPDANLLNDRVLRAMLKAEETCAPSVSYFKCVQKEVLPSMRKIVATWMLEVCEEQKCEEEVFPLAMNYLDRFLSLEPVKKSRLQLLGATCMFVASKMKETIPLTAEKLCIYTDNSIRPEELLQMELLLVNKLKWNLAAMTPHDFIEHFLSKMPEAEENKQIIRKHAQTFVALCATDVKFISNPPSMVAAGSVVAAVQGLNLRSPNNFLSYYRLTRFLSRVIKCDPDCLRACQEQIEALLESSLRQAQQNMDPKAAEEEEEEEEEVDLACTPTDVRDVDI

| Ki [1] | Ki [2] | SMILES |
| --- | --- | --- |
| 7.1 nM | 0.9 nM | CC(C)n1c(C2CCO2)nc2c(F)cc(-c3nc(N[C@@H]4CCN(S(C)(=O)=O)C[C@H]4O)ncc3Cl)cc21 (single isomer, unassigned) [Example A32] |
| 9.6 nM | 1.3 nM | CC1CNCc2nc3c(F)cc(-c4nc(N[C@@H]5CCOC[C@H]5O)ncc4Cl)cc3n21 (single isomer, unassigned) [Example A56, 1,5-anhydro-3-{[5-chloro-4-(9-fluoro-4-methyl-1,2,3,4-tetrahydropyrazino[1,2-a]benzimidazol-7-yl)pyrimidin-2-yl]amino}-2,3-dideoxy-D-threo-pentitol] |
| 39.9 nM | 4.3 nM | COC(=O)N1CC[C@@H](Nc2ncc(Cl)c(-c3cc(F)c4ncn(C5CCOC5)c4c3)n2)[C@H](O)C1 (single isomer, unassigned) [Example F02] |
| 26.4 nM | 2.7 nM | COC(=O)N1CC[C@@H](Nc2ncc(Cl)c(-c3cc(F)c4ncn(C5CCOC5)c4c3)n2)[C@H](O)C1 (single isomer, unassigned) [Example F03] |
| 125 nM | 15.3 nM | Cc1nc2c(F)cc(-c3nc(N[C@H]4CCN(C)C[C@@H]4O)ncc3F)cc2n1C(C)C (single isomer, unassigned) [Example F07] |
|  | 50 nM | CC(C)n1c([C@@H](C)O)nc2c(F)cc(-c3nc(N[C@@H]4CCN(S(C)(=O)=O)C[C@@H]4O)ncc3Cl)cc21 (single isomer, unassigned) [Example F12] |
| 17.3 nM | 4 nM | CN1CCC(Nc2ncc(F)c(-c3cc(F)c4ncn(C(C)(C)C)c4c3)n2)CC1 [Example A03] |
| 4.8 nM | 1.1 nM | Cc1nc2c(F)cc(-c3nc(N[C@@H]4CCN(S(C)(=O)=O)C[C@H]4O)ncc3Cl)cc2n1C [Example A08] |
| 49.7 nM | 3.2 nM | CN1Cc2nc3c(F)cc(-c4nc(N[C@@H]5CCOC[C@H]5O)ncc4Cl)cc3n2C(C)(C)C1 [Example A22] |
| 78 nM | 8.3 nM | CC(C)n1c(C(N)=O)nc2c(F)cc(-c3nc(N[C@@H]4CCOC[C@H]4O)ncc3Cl)cc21 [Example A33] |
| 102 nM | 11.1 nM | CNC(=O)c1nc2c(F)cc(-c3nc(N[C@@H]4CCOC[C@H]4O)ncc3Cl)cc2n1C(C)C [Example A34] |
| 34.2 nM | 3.5 nM | Cc1nc2c(F)cc(-c3nc(N[C@@H]4CCNC[C@H]4O)ncc3F)cc2n1C(C)C [Example A37, (3R,4R)-4-({5-fluoro-4-[4-fluoro-2-methyl-1-(propan-2-yl)-1H-benzimidazol-6-yl]pyrimidin-2-yl}amino)piperidin-3-ol] |
| 12.3 nM | 1.3 nM | Cc1nc2c(F)cc(-c3nc(N[C@@H]4CCN(S(C)(=O)=O)C[C@H]4O)ncc3Cl)cc2n1[C@@H](C)CN [Example A39, (3R,4R)-4-[(4-{1-[(2S)-1-aminopropan-2-yl]-4-fluoro-2-methyl-1H-benzimidazol-6-yl}-5-chloropyrimidin-2-yl)amino]-1-(methanesulfonyl)piperidin-3-ol] |
| 54.7 nM | 6 nM | C[C@@H](N)c1nc2c(F)cc(-c3nc(N[C@@H]4CCOC[C@H]4O)ncc3Cl)cc2n1C(C)(C)C [Example A42, 3-[(4-{2-[(1R)-1-aminoethyl]-1-tert-butyl-4-fluoro-1H-benzimidazol-6-yl}-5-chloropyrimidin-2-yl)amino]-1,5-anhydro-2,3-dideoxy-D-threo-pentitol] |
| 44 nM | 4.8 nM | CC(C)n1c(C2(N)CC2)nc2c(F)cc(-c3nc(N[C@@H]4CCOC[C@H]4O)ncc3Cl)cc21 [Example A43, 3-({4-[2-(1-aminocyclopropyl)-4-fluoro-1-(propan-2-yl)-1H-benzimidazol-6-yl]-5-chloropyrimidin-2-yl}amino)-1,5-anhydro-2,3-dideoxy-D-threo-pentitol] |
| 40.5 nM | 2.3 nM | CC1(C)CNCc2nc3c(F)cc(-c4nc(N[C@@H]5CCOC[C@H]5O)ncc4Cl)cc3n21 [Example A46, 1,5-anhydro-3-{[5-chloro-4-(9-fluoro-4,4-dimethyl-1,2,3,4-tetrahydropyrazino[1,2-a]benzimidazol-7-yl)pyrimidin-2-yl]amino}-2,3-dideoxy-D-threo-pentitol] |
| 110 nM | 17 nM | CC(C)n1c([C@@H](C)O)nc2c(F)cc(-c3nc(N[C@@H]4CCNC[C@H]4O)ncc3Cl)cc21 [Example A50, (3R,4R)-4-[(5-chloro-4-{4-fluoro-2-[(1R)-1-hydroxyethyl]-1-(propan-2-yl)-1H-benzimidazol-6-yl}pyrimidin-2-yl)amino]piperidin-3-ol] |
| 9.7 nM | 0.9 nM | CC1(n2c(CO)nc3c(F)cc(-c4nc(N[C@@H]5CCOC[C@H]5O)ncc4Cl)cc32)CC1 [Example A63, 1,5-anhydro-3-({5-chloro-4-[4-fluoro-2-(hydroxymethyl)-1-(1-methylcyclopropyl)-1H-benzimidazol-6-yl]pyrimidin-2-yl}amino)-2,3-dideoxy-D-threo-pentitol] |
| 10.7 nM | 2 nM | CC(C)(F)Cn1c(CO)nc2c(F)cc(-c3nc(N[C@@H]4CCOC[C@H]4O)ncc3Cl)cc21 [Example A64, 1,5-anhydro-3-({5-chloro-4-[4-fluoro-1-(2-fluoro-2-methylpropyl)-2-(hydroxymethyl)-1H-benzimidazol-6-yl]pyrimidin-2-yl}amino)-2,3-dideoxy-D-threo-pentitol] |
| 3.5 nM | 0.6 nM | CS(=O)(=O)N1CC[C@@H](Nc2ncc(Cl)c(-c3cc(F)c4nc(CO)n(C5CCC5)c4c3)n2)[C@H](O)C1 [Example A65, (3R,4R)-4-({5-chloro-4-[1-cyclobutyl-4-fluoro-2-(hydroxymethyl)-1H-benzimidazol-6-yl]pyrimidin-2-yl}amino)-1-(methanesulfonyl)piperidin-3-ol] |
| 54.7 nM | 12.1 nM | OCc1nc2c(F)cc(-c3nc(N[C@@H]4CCOC[C@H]4O)ncc3Cl)cc2n1C1CC(F)(F)C1 [Example A66, 1,5-anhydro-3-({5-chloro-4-[1-(3,3-difluorocyclobutyl)-4-fluoro-2-(hydroxymethyl)-1H-benzimidazol-6-yl]pyrimidin-2-yl}amino)-2,3-dideoxy-D-threo-pentitol] |
| 15.5 nM | 1.4 nM | CC(C)(O)c1nc2c(F)cc(-c3nc(N[C@@H]4CCOC[C@H]4O)ncc3Cl)cc2n1CC(F)F [Example A67, 1,5-anhydro-3-({5-chloro-4-[1-(2,2-difluoroethyl)-4-fluoro-2-(2-hydroxypropan-2-yl)-1H-benzimidazol-6-yl]pyrimidin-2-yl}amino)-2,3-dideoxy-D-threo-pentitol] |
| 124 nM | 26.2 nM | CCc1cnc(N[C@@H]2CCN(S(C)(=O)=O)C[C@H]2O)nc1-c1cc(F)c2nc(C)n(C(C)C)c2c1 [Example A70, (3R,4R)-4-({5-ethyl-4-[4-fluoro-2-methyl-1-(propan-2-yl)-1H-benzimidazol-6-yl]pyrimidin-2-yl}amino)-1-(methanesulfonyl)piperidin-3-ol] |
| 2.1 nM | 0.3 nM | Cc1nc2c(F)cc(-c3nc(N[C@@H]4CCN(S(C)(=O)=O)C[C@H]4O)ncc3Cl)cc2n1C1CC1 [Example A72, (3R,4R)-4-{[5-chloro-4-(1-cyclopropyl-4-fluoro-2-methyl-1H-benzimidazol-6-yl)pyrimidin-2-yl]amino}-1-(methanesulfonyl)piperidin-3-ol] |
| 24.6 nM | 3.8 nM | COc1cnc(N[C@@H]2CCN(S(C)(=O)=O)C[C@H]2O)nc1-c1cc(F)c2nc(C)n(C(C)C)c2c1 [Example A82, (3R,4R)-4-({4-[4-fluoro-2-methyl-1-(propan-2-yl)-1H-benzimidazol-6-yl]-5-methoxypyrimidin-2-yl}amino)-1-(methanesulfonyl)piperidin-3-ol] |
|  | 0.6 nM | CC(O)c1nc2c(F)cc(-c3nc(N[C@@H]4CCN(S(=O)(=O)C(F)F)C[C@H]4O)ncc3Cl)cc2n1C(C)C (stereo partly drawn) [Example F09, (3R,4R)-4-({5-chloro-4-[4-fluoro-2-(1-hydroxyethyl)-1-(propan-2-yl)-1H-benzimidazol-6-yl]pyrimidin-2-yl}amino)-1-(difluoromethanesulfonyl)piperidin-3-ol] |
|  | 11.6 nM | CC(C)n1c([C@@H](C)O)nc2c(F)cc(-c3nc(N[C@H]4CCN(S(C)(=O)=O)C[C@@H]4O)ncc3Cl)cc21 [Example F13, (3S,4S)-4-[(5-chloro-4-{4-fluoro-2-[(1R)-1-hydroxyethyl]-1-(propan-2-yl)-1H-benzimidazol-6-yl}pyrimidin-2-yl)amino]-1-(methanesulfonyl)piperidin-3-ol] |

| SMILES | Ki [1] | Ki [2] |
| --- | --- | --- |
| CC1OCC(C)n2c1nc1c(F)cc(-c3nc(N[C@@H]4CCOC[C@H]4O)ncc3Cl)cc12 (single isomer, unassigned) [Example A20] | 20.4 nM |  |
| CC1OCC(C)n2c1nc1c(F)cc(-c3nc(N[C@@H]4CCOC[C@H]4O)ncc3Cl)cc12 (single isomer, unassigned) [Example A21] | 136 nM |  |
